Measurements: patent US9447069B2, “ROR modulators and their uses” (INNOV17 LLC, priority 2012, dated 2016)
Where two headings read alike, the source gives them in different places.

Key:
IL-22 = assay: TH17 cytokine inhibition measured by ELISA (IL-22); assay type: cell-based; details: 120 h; human TH17 cells, 5 days differentiation, ELISA of supernatants, 0.1% DMSO
Method: (§1) Peripheral blood mononuclear cells (PBMCs) were sourced from freshly prepared leukocyte enriched plasma (buffy coat) from healthy volunteers from which PBMCs were isolated by density gradient centrifugation using Ficoll-Paque™ PLUS (GE Healthcare). Naïve CD4+ T cells were isolated using the Naïve CD4+ T cell Isolation Kit II (Miltenyi Biotec) as per manufacturer's instructions. CD4+ T cells were plated at 5×10^4 cells/well in 96 well plates pre-coated with immobilized human (h)-αCD3 antibody (eBioscience) then differentiated to TH17 cells using h-αCD28, h-αIFN-γ, h-αIL-4, h-IL-6, h-IL-23, h-IL-1β, h-TGF-β1 (eBioscience) and maintained in a cell culture incubator at 37° C. with 5% CO2 in TexMACS Medium (Miltenyi Biotec) supplemented with 1% Penicillin/Streptomycin (Lonza) over 5 days.
(§2) Human CD4+ T cells were differentiated to TH17 cells as described in the presence or absence of various concentrations of compounds in a final concentration of 0.1% DMSO in TexMACS medium. Supernatants were collected and stored at −20° C. until they were to be assayed for IL-17A, IL-17F, IL-17AF, IL-21 and/or IL-22 levels as determined by Ready-Set-Go ELISA kits (eBioscience) as per manufacturer's instructions. Endpoint absorbance was read at 450 nm and 570 nm according to manufacturer's instructions (eBioscience) using a microplate reader (Perkin Elmer). The percentage of cytokine inhibition was calculated with reference to DMSO treated cells and the IC50s were determined by GraphPad Prism software and presented in the table below.

IL-17A [1] = assay: Real-Time qRT-PCR gene expression in TH17 cells (IL-17A); assay type: cell-based, human; set-up: key: A: No change in gene expression observed relative to DMSO treated Th17 cells; B: Decreased gene expression observed relative to DMSO treated Th17 cells; C: Increased gene expression observed relative to DMSO treated Th17 cells; details: normalized to six reference genes
Method: as §1
(§3) RNA was isolated from TH17 cells and cDNA was synthesized using the Verso cDNA kit (Thermo Scientific) as per manufacturer's instructions. IL-17A, IL-17F, IL-21, IL-22, G-CSF, IL-23R and FOXP3 gene expression were determined for compound treated and untreated TH17 cell samples using Solaris qPCR Gene expression assays (Thermo Scientific) with an iCycler iQ Real-Time PCR Detection System (Bio-Rad). Individual gene expression was normalized to a panel of six reference genes (ACTB, TBP, HPRT1, PGK1, TFRC and PPIA) (Thermo Scientific) and analyzed by REST 2009 (Qiagen) in accordance to MIQE guidelines (Bustin et al. (2009) Clin. Chem, 55:611-622). The effects of compounds on TH17 cytokine gene expression are presented as fold change in mRNA levels of compound treated TH17 cells relative to DMSO treated cells in the table below.

TH17 cells = assay: TH17 cellular proliferation (Prestoblue); assay type: cell-based; details: Homo sapiens, 120 h; 3 μM compound, after 5 day TH17 differentiation, relative to DMSO treated TH17 cells; read-out: % change in TH17 cell number
Method: as §1
Cellular proliferation was assessed in the presence or absence of 3 μM compound using Prestoblue® Cell Viability Reagent (Life Technologies) as per manufacturer's instructions using absorbance as the output measured by a microplate reader (Perkin Elmer) after 30 minutes of incubation. A standard curve developed by plotting varying cell numbers versus absorbance was used to assess differences in cellular proliferation between compound treated or untreated cells after the 5 day TH17 differentiation period.

IL-17A [2] = assay: TH17 cytokine inhibition measured by ELISA (IL-17A); assay type: cell-based; details: 120 h; human TH17 cells, 5 days differentiation, ELISA of supernatants, 0.1% DMSO
Method: as §1, §2

RORγ LBD = target: T1, RORγ LBD (Homo sapiens, UniProt P51449); assay: TR-FRET D22 co-activator displacement from RORγ LBD; assay type: biochemical; set-up: purified GST-tagged (i) RORγ LBD or (ii) RORα LBD; purchased Life Technologies
T1 sequence (P51449 269-508 limits assumed): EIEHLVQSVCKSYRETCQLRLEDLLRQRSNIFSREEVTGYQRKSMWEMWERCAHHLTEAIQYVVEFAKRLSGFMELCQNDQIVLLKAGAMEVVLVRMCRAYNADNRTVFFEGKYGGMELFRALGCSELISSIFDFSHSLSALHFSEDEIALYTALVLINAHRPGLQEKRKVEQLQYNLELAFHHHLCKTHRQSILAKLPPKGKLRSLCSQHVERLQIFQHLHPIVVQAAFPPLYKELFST
From the text: The Time-Resolved Fluorescence Resonance Energy Transfer (TR-FRET) assay kit (Life Technologies) was used to measure compound efficacy to disrupt or enhance ligand-mediated interaction of the co-activator and co-repressor peptides with the purified GST-tagged (i) RORγ LBD or (ii) RORα LBD. The RORγ LBD and RORα LBD each have a basal level of interaction with the co-activator D22 or co-repressor NCoR1-D2 in the absence of ligand, thus it is possible to identify compounds that inhibit or induce RORγ and/or RORα co-activator/co-repressor interactions, thus determining RORα, RORγ, or RORα/RORγ compound selectivity. The assay was performed as per manufacturer's instructions and TR-FRET was assessed 2 and 20 hours post-assay initiation. Compounds were identified to (i) have no impact on either co-activator displacement or […] from the assessed LBD (ii) promote co-activator displacement from the assessed LBD (iii) promote co-repressor recruitment to the assessed LBD or (iv) concurrently promote co-activator displacement from the assessed LBD and co-repressor recruitment to the assessed LBD.

FOXP3 = assay: Real-Time qRT-PCR gene expression in TH17 cells (FOXP3); assay type: cell-based, human; set-up: key: A: No change in gene expression observed relative to DMSO treated Th17 cells; B: Decreased gene expression observed relative to DMSO treated Th17 cells; C: Increased gene expression observed relative to DMSO treated Th17 cells; details: normalized to six reference genes
Method: as §1, §3

[3] = TH17 cell viability (Prestoblue); assay type: cell-based; details: human; 1 μM compound, after 5 days, percentage of DMSO treated cells
Method: as §1
Cells were assayed for viability in the presence or absence of 1 μM compound using Prestoblue® Cell Viability Reagent (Life Technologies) as per manufacturer's instructions after 30 minutes incubation of TH17 cells with reagent. Absorbance was measured at 570 nm and 600 nm using a microplate reader (Perkin Elmer) and data were analyzed as per manufacturer's instructions. Cell viability was determined after 5 days and expressed as a percentage of DMSO treated cells.

[4] = TR-FRET assessed 2 hr post-assay initiation, read-out: RORγ EC50 D22 co-activator displacement, 2 hr
[5] = TR-FRET assessed 20 hr post-assay initiation, read-out: RORγ EC50 D22 co-activator displacement, 20 hr

Compound	IC50 (IL-22) [µM]	Fold change in mRNA levels of compound treated TH17 cells relative to DMSO treated cells, IL-17A (IL-17A [1])	inhibition at 3 µM (TH17 cells) [%]	IC50 (IL-17A [2]) [µM]	EC50 (RORγ LBD; [4]) [µM]	EC50 (RORγ LBD; [5]) [µM]	Fold change in mRNA levels of compound treated TH17 cells relative to DMSO treated cells, FOXP3 (FOXP3)	viability at 5 days, 1 µM [3] [%]
Cc1cc(-c2ccc3c(c2)CCCN3Cc2ccc(C(O)(C(F)(F)F)C(F)(F)F)cc2)[nH]n1 [Example 1, 1,1,1,3,3,3-hexafluoro-2-(4-((6-(3-methyl-1H-pyrazol-5-yl)-3,4-dihydroquinolin-1(2H)-yl)methyl)phenyl)propan-2-ol]	< 10	A	> 50	< 10	< 30	< 30	C	> 80
OC(c1ccc(CN2CCCc3cc(-c4cn[nH]c4)ccc32)cc1)(C(F)(F)F)C(F)(F)F [Example 2, 2-(4-((6-(1H-pyrazol-4-yl)-3,4-dihydroquinolin-1(2H)-yl)methyl)phenyl)-1,1,1,3,3,3-hexafluoropropan-2-ol]	< 10	B	> 50	< 10	< 30	< 30	C	> 80
Cc1n[nH]c(-c2ccc3c(c2)CCCN3Cc2ccc(C(O)(C(F)(F)F)C(F)(F)F)cc2)n1 [Example 3, 1,1,1,3,3,3-hexafluoro-2-(4-((6-(3-methyl-1H-1,2,4-triazol-5-yl)-3,4-dihydroquinolin-1(2H)-yl)methyl)phenyl)propan-2-ol]	< 10	B	> 50	< 10	< 30	> 30	A	> 80
Cc1cc(-c2ccc3c(c2)CCC(=O)N3Cc2ccc(C(O)(C(F)(F)F)C(F)(F)F)cc2)[nH]n1 [Example 4, 1-(4-(1,1,1,3,3,3-hexafluoro-2-hydroxypropan-2-yl)benzyl)-6-(3-methyl-1H-pyrazol-5-yl)-3,4-dihydroquinolin-2(1H)-one]	< 10	B	≤ 50	< 10	> 30	> 30	A	> 80
O=C1CCc2cc(-c3cn[nH]c3)ccc2N1Cc1ccc(C(O)(C(F)(F)F)C(F)(F)F)cc1 [Example 5, 1-(4-(1,1,1,3,3,3-hexafluoro-2-hydroxypropan-2-yl)benzyl)-6-(1H-pyrazol-4-yl)-3,4-dihydroquinolin-2(1H)-one]	< 10	A	≤ 50	< 10	> 30	< 30	A	< 80
Cc1n[nH]c(-c2ccc3c(c2)CCC(=O)N3Cc2ccc(C(O)(C(F)(F)F)C(F)(F)F)cc2)n1 [Example 6, 1-(4-(1,1,1,3,3,3-hexafluoro-2-hydroxypropan-2-yl)benzyl)-6-(3-methyl-1H-1,2,4-triazol-5-yl)-3,4-dihydroquinolin-2(1H)-one]	< 10	B	≤ 50	< 10	< 30	< 30	C	> 80
